The values below come from ChEMBL document CHEMBL3045406, “Enantioselective Relieving Activity of α-Methylbenzylphenylureas toward Bensulfuron-methyl Injury to Rice (Oryza sativa)” (Biosci Biotechnol Biochem, 1999).

One data set concerns Oryza sativa. The experiment in a line: Relieving activity against bensulfuron-methyl induced injury to Oryza sativa (rice) assessed as growth rate at 0.1 uM (Rbv = 46 to 53%). In kind it is functional.
Conditions: not given
Take `C[C@H](NC(=O)Nc1cccc(C(F)(F)F)c1)c1ccccc1`: the Activity stood at 62%.
Same read-out and setting: the result for `C[C@H](NC(=O)Nc1cc(Cl)ccc1Cl)c1ccccc1` reads 79%; that for `C[C@H](NC(=O)Nc1c(F)cccc1F)c1ccccc1`, 53%; that for `CCc1cccc(NC(=O)N[C@H](C)c2ccccc2)c1`, 54%.
For the compound `Cc1cc(F)ccc1NC(=O)N[C@H](C)c1ccccc1`, the Activity is given as 54%.
On to `C[C@@H](NC(=O)Nc1cccc(C(F)(F)F)c1F)c1ccccc1`, for which the Activity turned out to be 68%.
On the same count and under the same terms, the result for `Cc1cccc(NC(=O)N[C@@H](C)c2ccccc2)c1` reads 63%.
Regarding `C[C@H](NC(=O)Nc1cccc(I)c1)c1ccccc1`, the Activity turned out to be 72%.
On the same count and under the same terms, the result for `C[C@@H](NC(=O)Nc1cc(C(F)(F)F)cc(C(F)(F)F)c1)c1ccccc1` reads 56%; that for `C[C@H](NC(=O)Nc1cccc(C(F)(F)F)c1F)c1ccccc1`, 76%.

The subject of another data set is Oryza sativa. The experiment in a line: Safener indices, ratio of compound effect of Oryza sativa (rice) growth rate to relieving activity against bensulfuron-methyl induced injury to Oryza sativa growth rate at 1 uM.
Conditions: not given
In the case of `C[C@H](NC(=O)Nc1cccc(C(F)(F)F)c1)c1ccccc1`, the Ratio was 53.
Turning to `C[C@H](NC(=O)Nc1cc(Cl)ccc1Cl)c1ccccc1`, the Ratio came to 69.
With `C[C@H](NC(=O)Nc1c(F)cccc1F)c1ccccc1`, the Ratio came out at 22.
In the case of `CCc1cccc(NC(=O)N[C@H](C)c2ccccc2)c1`, the Ratio came to 36.
Same read-out and setting: the result for `Cc1cc(F)ccc1NC(=O)N[C@H](C)c1ccccc1` reads 9; that for `C[C@@H](NC(=O)Nc1cccc(C(F)(F)F)c1F)c1ccccc1`, 79; that for `Cc1cccc(NC(=O)N[C@@H](C)c2ccccc2)c1`, 58.
On the same count and under the same terms, the result for `C[C@H](NC(=O)Nc1cccc(I)c1)c1ccccc1` reads 66.
On the same count and under the same terms, the same measure for `C[C@@H](NC(=O)Nc1cc(C(F)(F)F)cc(C(F)(F)F)c1)c1ccccc1`: 34; for `C[C@H](NC(=O)Nc1cccc(C(F)(F)F)c1F)c1ccccc1`: 84.

In the next data set the test system is Oryza sativa. The experiment in a line: Safener indices, ratio of compound effect of Oryza sativa (rice) growth rate to relieving activity against bensulfuron-methyl induced injury to Oryza sativa growth rate at 0.1 uM.
Conditions: not given
Turning to `C[C@H](NC(=O)Nc1cccc(C(F)(F)F)c1)c1ccccc1`, the Ratio came to 26.
Same read-out and setting: the result for `C[C@H](NC(=O)Nc1cc(Cl)ccc1Cl)c1ccccc1` reads 56.
The same measure, in the same setting: the result for `C[C@H](NC(=O)Nc1c(F)cccc1F)c1ccccc1` reads 6.
Take `CCc1cccc(NC(=O)N[C@H](C)c2ccccc2)c1`: the Ratio came out at 8.
On the same count and under the same terms, the result for `Cc1cc(F)ccc1NC(=O)N[C@H](C)c1ccccc1` reads 3; that for `C[C@@H](NC(=O)Nc1cccc(C(F)(F)F)c1F)c1ccccc1`, 33.
Same read-out and setting: the result for `Cc1cccc(NC(=O)N[C@@H](C)c2ccccc2)c1` reads 27.
In the case of `C[C@H](NC(=O)Nc1cccc(I)c1)c1ccccc1`, the Ratio came out at 43.
On the same count and under the same terms, the result for `C[C@@H](NC(=O)Nc1cc(C(F)(F)F)cc(C(F)(F)F)c1)c1ccccc1` reads 10; that for `C[C@H](NC(=O)Nc1cccc(C(F)(F)F)c1F)c1ccccc1`, 51.

For the next data set, the system named is Oryza sativa. Put plainly: Effect on Oryza sativa (rice) assessed as growth rate at 10 uM relative to control. In kind it is organism-based. The settings on record: in vivo.
As to `C[C@H](NC(=O)Nc1cccc(C(F)(F)F)c1)c1ccccc1`, the Activity is 92%.
On the same count and under the same terms, the result for `C[C@H](NC(=O)Nc1cc(Cl)ccc1Cl)c1ccccc1` reads 100%; that for `C[C@H](NC(=O)Nc1c(F)cccc1F)c1ccccc1`, 99%.
The same measure, in the same setting: the same measure for `CCc1cccc(NC(=O)N[C@H](C)c2ccccc2)c1`: 36%; for `Cc1cc(F)ccc1NC(=O)N[C@H](C)c1ccccc1`: 94%; for `C[C@@H](NC(=O)Nc1cccc(C(F)(F)F)c1F)c1ccccc1`: 98%.
For the compound `Cc1cccc(NC(=O)N[C@@H](C)c2ccccc2)c1`, the Activity is listed as 100%.
The same measure, in the same setting: the result for `C[C@H](NC(=O)Nc1cccc(I)c1)c1ccccc1` reads 93%.
Take `C[C@@H](NC(=O)Nc1cc(C(F)(F)F)cc(C(F)(F)F)c1)c1ccccc1`: the Activity came out at 53%.
`C[C@H](NC(=O)Nc1cccc(C(F)(F)F)c1F)c1ccccc1`: the Activity was determined as 100%.

A further data set concerns Oryza sativa. Put plainly: Relieving activity against bensulfuron-methyl induced injury to Oryza sativa (rice) assessed as growth rate at 10 uM (Rbv = 46 to 53%). In kind it is functional.
Conditions: not given
With `C[C@H](NC(=O)Nc1cccc(C(F)(F)F)c1)c1ccccc1`, the Activity turned out to be 82%.
For `C[C@H](NC(=O)Nc1cc(Cl)ccc1Cl)c1ccccc1`, the Activity was found to be 91%.
On the same count and under the same terms, the result for `C[C@H](NC(=O)Nc1c(F)cccc1F)c1ccccc1` reads 81%; that for `CCc1cccc(NC(=O)N[C@H](C)c2ccccc2)c1`, 42%.
On the same count and under the same terms, the result for `Cc1cc(F)ccc1NC(=O)N[C@H](C)c1ccccc1` reads 74%; that for `C[C@@H](NC(=O)Nc1cccc(C(F)(F)F)c1F)c1ccccc1`, 96%; that for `Cc1cccc(NC(=O)N[C@@H](C)c2ccccc2)c1`, 89%.
Take `C[C@H](NC(=O)Nc1cccc(I)c1)c1ccccc1`: the Activity is recorded as 90%.
Same read-out and setting: the same measure for `C[C@@H](NC(=O)Nc1cc(C(F)(F)F)cc(C(F)(F)F)c1)c1ccccc1`: 49%.
Turning to `C[C@H](NC(=O)Nc1cccc(C(F)(F)F)c1F)c1ccccc1`, the Activity is listed as 98%.

In another data set the test system is Oryza sativa. Put plainly: Safener indices, ratio of compound effect of Oryza sativa (rice) growth rate to relieving activity against bensulfuron-methyl induced injury to Oryza sativa growth rate at 10 uM.
Conditions: not given
In the case of `C[C@H](NC(=O)Nc1cccc(C(F)(F)F)c1)c1ccccc1`, the Ratio came out at 66.
On the same count and under the same terms, the result for `C[C@H](NC(=O)Nc1cc(Cl)ccc1Cl)c1ccccc1` reads 82.
For `C[C@H](NC(=O)Nc1c(F)cccc1F)c1ccccc1`, the Ratio came out at 62.
Same read-out and setting: the result for `CCc1cccc(NC(=O)N[C@H](C)c2ccccc2)c1` reads 29; that for `Cc1cc(F)ccc1NC(=O)N[C@H](C)c1ccccc1`, 48.
Same read-out and setting: the same measure for `C[C@@H](NC(=O)Nc1cccc(C(F)(F)F)c1F)c1ccccc1`: 92; for `Cc1cccc(NC(=O)N[C@@H](C)c2ccccc2)c1`: 79.
Still for that read-out and setting: the result for `C[C@H](NC(=O)Nc1cccc(I)c1)c1ccccc1` reads 80.
For `C[C@@H](NC(=O)Nc1cc(C(F)(F)F)cc(C(F)(F)F)c1)c1ccccc1`, the Ratio stood at 30.
With `C[C@H](NC(=O)Nc1cccc(C(F)(F)F)c1F)c1ccccc1`, the Ratio was found to be 96.

Tested on in another data set: not listed separately
The experiment in a line: Hydrophobicity, log K of the compound. The data set is classed as physicochemical. The following applies: octanol/water.
Consider `C[C@H](NC(=O)Nc1cccc(C(F)(F)F)c1)c1ccccc1`, for which the “log K” value came to 0.542.
On to `C[C@H](NC(=O)Nc1cc(Cl)ccc1Cl)c1ccccc1`, for which the “log K” value was determined as 0.704.
On the same count and under the same terms, the same measure for `C[C@H](NC(=O)Nc1c(F)cccc1F)c1ccccc1`: 0.238; for `CCc1cccc(NC(=O)N[C@H](C)c2ccccc2)c1`: 0.489; for `Cc1cc(F)ccc1NC(=O)N[C@H](C)c1ccccc1`: 0.356.
Same read-out and setting: the result for `C[C@@H](NC(=O)Nc1cccc(C(F)(F)F)c1F)c1ccccc1` reads 0.624; that for `Cc1cccc(NC(=O)N[C@@H](C)c2ccccc2)c1`, 0.374.
On the same count and under the same terms, the result for `C[C@H](NC(=O)Nc1cccc(I)c1)c1ccccc1` reads 0.568.
Turning to `C[C@@H](NC(=O)Nc1cc(C(F)(F)F)cc(C(F)(F)F)c1)c1ccccc1`, the “log K” value turned out to be 0.831.
The same measure, in the same setting: the result for `C[C@H](NC(=O)Nc1cccc(C(F)(F)F)c1F)c1ccccc1` reads 0.624.

A further data set relates to Oryza sativa. Put plainly: Effect on Oryza sativa (rice) assessed as growth rate at 0.1 uM relative to control. In kind it is organism-based. The settings on record: in vivo.
For `C[C@H](NC(=O)Nc1cccc(C(F)(F)F)c1)c1ccccc1`, the Activity is given as 94%.
Same read-out and setting: the result for `C[C@H](NC(=O)Nc1cc(Cl)ccc1Cl)c1ccccc1` reads 100%; that for `C[C@H](NC(=O)Nc1c(F)cccc1F)c1ccccc1`, 100%; that for `CCc1cccc(NC(=O)N[C@H](C)c2ccccc2)c1`, 97%.
Same read-out and setting: the result for `Cc1cc(F)ccc1NC(=O)N[C@H](C)c1ccccc1` reads 100%.
Same read-out and setting: the result for `C[C@@H](NC(=O)Nc1cccc(C(F)(F)F)c1F)c1ccccc1` reads 99%.
Take `Cc1cccc(NC(=O)N[C@@H](C)c2ccccc2)c1`: the Activity is listed as 99%.
The same measure, in the same setting: the same measure for `C[C@H](NC(=O)Nc1cccc(I)c1)c1ccccc1`: 98%.
On the same count and under the same terms, the result for `C[C@@H](NC(=O)Nc1cc(C(F)(F)F)cc(C(F)(F)F)c1)c1ccccc1` reads 100%; that for `C[C@H](NC(=O)Nc1cccc(C(F)(F)F)c1F)c1ccccc1`, 99%.

The subject of a further data set is Oryza sativa. Put plainly: Relieving activity against bensulfuron-methyl induced injury to Oryza sativa (rice) assessed as growth rate at 1 uM (Rbv = 46 to 53%). The data set is classed as functional.
Conditions: not given
`C[C@H](NC(=O)Nc1cccc(C(F)(F)F)c1)c1ccccc1`: the Activity amounted to 75%.
Still for that read-out and setting: the result for `C[C@H](NC(=O)Nc1cc(Cl)ccc1Cl)c1ccccc1` reads 85%.
Same read-out and setting: the result for `C[C@H](NC(=O)Nc1c(F)cccc1F)c1ccccc1` reads 61%.
The same measure, in the same setting: the same measure for `CCc1cccc(NC(=O)N[C@H](C)c2ccccc2)c1`: 59%.
Consider `Cc1cc(F)ccc1NC(=O)N[C@H](C)c1ccccc1`, for which the Activity was 57%.
For the compound `C[C@@H](NC(=O)Nc1cccc(C(F)(F)F)c1F)c1ccccc1`, the Activity is listed as 90%.
Consider `Cc1cccc(NC(=O)N[C@@H](C)c2ccccc2)c1`, for which the Activity was found to be 79%.
The same measure, in the same setting: the result for `C[C@H](NC(=O)Nc1cccc(I)c1)c1ccccc1` reads 83%; that for `C[C@@H](NC(=O)Nc1cc(C(F)(F)F)cc(C(F)(F)F)c1)c1ccccc1`, 65%; that for `C[C@H](NC(=O)Nc1cccc(C(F)(F)F)c1F)c1ccccc1`, 92%.

The subject of a further data set is Oryza sativa. The experiment in a line: Effect on Oryza sativa (rice) assessed as growth rate at 1 uM relative to control. The data set is classed as organism-based. The following applies: in vivo.
As for `C[C@H](NC(=O)Nc1cccc(C(F)(F)F)c1)c1ccccc1`, the Activity is 93%.
The same measure, in the same setting: the result for `C[C@H](NC(=O)Nc1cc(Cl)ccc1Cl)c1ccccc1` reads 99%.
In the case of `C[C@H](NC(=O)Nc1c(F)cccc1F)c1ccccc1`, the Activity is reported as 99%.
As for `CCc1cccc(NC(=O)N[C@H](C)c2ccccc2)c1`, the Activity is on record as 71%.
Same read-out and setting: the result for `Cc1cc(F)ccc1NC(=O)N[C@H](C)c1ccccc1` reads 100%; that for `C[C@@H](NC(=O)Nc1cccc(C(F)(F)F)c1F)c1ccccc1`, 99%.
On the same count and under the same terms, the same measure for `Cc1cccc(NC(=O)N[C@@H](C)c2ccccc2)c1`: 100%; for `C[C@H](NC(=O)Nc1cccc(I)c1)c1ccccc1`: 95%.
On the same count and under the same terms, the same measure for `C[C@@H](NC(=O)Nc1cc(C(F)(F)F)cc(C(F)(F)F)c1)c1ccccc1`: 93%; for `C[C@H](NC(=O)Nc1cccc(C(F)(F)F)c1F)c1ccccc1`: 98%.
